Measurements published in ChEMBL document CHEMBL1201862, “PubChem BioAssay data set” (2004).
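1) Cells in 96-well plates. 2) Compound, 48 h, 5 concentrations. 3) Linear interpolation between surrounding doses. 4) Unreached endpoint = highest concentration. GI50: concentration for 50% inhibition of growth.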 Calls of active or inactive are those of the source. No stated cut-off is given here; in the data, active = GI50 up to about 1.1 µM and inactive = higher.

Experiments:
Assay in all cases: DTP human tumour cell line panel, 48 h
A549 = tested on: A549
ACHN = tested on: ACHN
CCRF-CEM = tested on: CCRF-CEM
EKVX = tested on: EKVX
HL-60 = tested on: HL-60
HOP-62 = tested on: HOP-62
Hs-578T = tested on: Hs-578T
M14 = tested on: M14
MCF7 = tested on: MCF7
MDA-MB-231 = tested on: MDA-MB-231
MDA-N = tested on: MDA-N
NCI-H226 = tested on: NCI-H226
NCI-H460 = tested on: NCI-H460
NCI-H522 = tested on: NCI-H522
OVCAR-4 = tested on: OVCAR-4
PC-3 = tested on: PC-3
SK-OV-3 = tested on: SK-OV-3
SNB-19 = tested on: SNB-19
UACC-62 = tested on: UACC-62
HOP-92 = tested on: HOP-92

Measured: GI50

C=C1CCC2CC1C(C(=O)c1c[nH]c3ccccc13)=NC2(C)C (stereo not given)
inactive: A549 > 100 µM | ACHN > 100 µM | CCRF-CEM > 100 µM | EKVX 77.3 µM | HL-60 > 100 µM | HOP-62 > 100 µM | Hs-578T > 100 µM | M14 > 100 µM | MCF7 > 100 µM | MDA-MB-231 > 100 µM | MDA-N > 100 µM | NCI-H226 > 100 µM | NCI-H460 > 100 µM | NCI-H522 > 100 µM | OVCAR-4 > 100 µM | PC-3 > 100 µM | SK-OV-3 > 100 µM | SNB-19 > 100 µM | UACC-62 > 100 µM

Oc1ccc(Cc2cc(Cc3ccc(O)cc3)cc(Cc3ccc(O)cc3)c2)cc1
inactive: A549 > 50 µM | ACHN > 50 µM | EKVX > 50 µM | HL-60 > 50 µM | HOP-62 > 50 µM | Hs-578T > 50 µM | M14 > 50 µM | MCF7 > 50 µM | MDA-MB-231 > 50 µM | MDA-N > 50 µM | NCI-H226 > 50 µM | NCI-H460 > 50 µM | NCI-H522 > 50 µM | OVCAR-4 > 50 µM | PC-3 > 50 µM | SK-OV-3 > 50 µM | SNB-19 > 50 µM | UACC-62 > 50 µM

COc1cc(-c2cc(OC)c(OC)c3ccc(Br)cc23)c2cc(Br)ccc2c1OC
inactive: A549 20.3 µM | ACHN 22.1 µM | EKVX 85.9 µM | HOP-62 21.6 µM | HOP-92 18.9 µM | Hs-578T 38.8 µM | M14 23.2 µM | MCF7 47.2 µM | MDA-MB-231 22.4 µM | MDA-N 22.5 µM | NCI-H226 23.3 µM | NCI-H460 41.7 µM | NCI-H522 42.9 µM | OVCAR-4 15 µM | PC-3 20.6 µM | SK-OV-3 30.8 µM | SNB-19 39.5 µM | UACC-62 21.9 µM

COC(=O)C1CC(C=[N+](C)C)=C(SC)N1C(=O)OCc1ccccc1 (stereo not given)
inactive: A549 > 100 µM | ACHN > 100 µM | EKVX > 100 µM | HOP-62 > 100 µM | HOP-92 > 100 µM | Hs-578T > 100 µM | M14 > 100 µM | MCF7 95.9 µM | MDA-MB-231 > 100 µM | MDA-N > 100 µM | NCI-H460 30.8 µM | NCI-H522 > 100 µM | OVCAR-4 > 100 µM | PC-3 > 100 µM | SK-OV-3 > 100 µM | SNB-19 > 100 µM | UACC-62 > 100 µM

CC(C(O)c1ccccc1)N(C)/N=N/c1nc2c([nH]1)c(=O)n(C)c(=O)n2C (stereo not given)
inactive: A549 50.8 µM | ACHN 36.6 µM | CCRF-CEM 47.2 µM | EKVX 88.1 µM | HL-60 > 100 µM | HOP-62 > 100 µM | Hs-578T > 100 µM | M14 > 100 µM | MCF7 26.1 µM | MDA-MB-231 92.3 µM | MDA-N 44.8 µM | NCI-H226 > 100 µM | NCI-H460 25.2 µM | OVCAR-4 > 100 µM | PC-3 95.3 µM | SK-OV-3 > 100 µM | SNB-19 > 100 µM | UACC-62 > 100 µM

CC(=O)OC(C#N)CC(C)(C)/[N+]([O-])=[N+](\[O-])C(C)(C)CC(C#N)OC(C)=O (stereo not given)
inactive: A549 30.1 µM | ACHN 12.1 µM | CCRF-CEM 1.73 µM | EKVX 16.7 µM | HOP-62 17.8 µM | HOP-92 12.3 µM | Hs-578T 17.3 µM | M14 14.4 µM | MCF7 8.83 µM | MDA-MB-231 14.7 µM | MDA-N 14.3 µM | NCI-H226 20.7 µM | NCI-H460 18 µM | NCI-H522 8.47 µM | OVCAR-4 17.6 µM | PC-3 15.3 µM | SK-OV-3 > 100 µM | SNB-19 23.1 µM | UACC-62 16.7 µM

Cc1cc2nc(N)n[n+]([O-])c2cc1C
inactive: A549 > 100 µM | ACHN > 100 µM | CCRF-CEM > 100 µM | EKVX > 100 µM | HL-60 > 100 µM | HOP-62 > 100 µM | Hs-578T > 100 µM | M14 > 100 µM | MCF7 > 100 µM | MDA-MB-231 > 100 µM | MDA-N > 100 µM | NCI-H226 > 100 µM | NCI-H522 > 100 µM | PC-3 > 100 µM | SK-OV-3 > 100 µM | SNB-19 > 100 µM | UACC-62 > 100 µM

Cc1cc(N(CCC#N)CCC#N)ccc1C(/N=N\c1ccc([N+](=O)[O-])cc1)=N\NC(=O)c1cc(Cl)ccc1O
inactive: A549 38.6 µM | ACHN 27.8 µM | CCRF-CEM 25.1 µM | EKVX 24.3 µM | HOP-62 26.2 µM | Hs-578T 15.7 µM | M14 42 µM | MCF7 22.6 µM | MDA-MB-231 30.3 µM | MDA-N 51.3 µM | NCI-H226 25.5 µM | NCI-H460 25.1 µM | NCI-H522 9.35 µM | OVCAR-4 26.5 µM | PC-3 23 µM | SK-OV-3 50.7 µM | SNB-19 34.7 µM | UACC-62 22.9 µM

CN(C)CCNC(=O)c1cnn(C)c1[N+](=O)[O-]
inactive: A549 > 100 µM | ACHN > 100 µM | CCRF-CEM > 100 µM | EKVX > 100 µM | HL-60 35.2 µM | HOP-62 > 100 µM | Hs-578T > 100 µM | M14 > 100 µM | MCF7 63.4 µM | MDA-MB-231 > 100 µM | MDA-N 41.6 µM | NCI-H226 > 100 µM | NCI-H460 77.4 µM | NCI-H522 > 100 µM | OVCAR-4 76.7 µM | PC-3 36.1 µM | SK-OV-3 > 100 µM | SNB-19 > 100 µM | UACC-62 52.4 µM

Cc1ccc(C2=CC(=O)OC(C[P+](c3ccccc3)(c3ccccc3)c3ccccc3)(c3ccccc3)O2)cc1 (stereo not given)
inactive: A549 15.8 µM | ACHN 21.3 µM | CCRF-CEM 16.8 µM | EKVX 15.3 µM | HL-60 20.1 µM | HOP-62 19.5 µM | Hs-578T 18.2 µM | M14 17 µM | MCF7 21.1 µM | MDA-MB-231 28.5 µM | MDA-N 14.7 µM | NCI-H226 27.1 µM | NCI-H460 17.8 µM | NCI-H522 12 µM | OVCAR-4 16.4 µM | PC-3 23.1 µM | SK-OV-3 18.2 µM | SNB-19 17 µM | UACC-62 14.8 µM

Nc1nc2cc(CNc3ccc(C(=O)NC(CCC(=O)O)C(=O)O)cc3)ccc2nc1-c1ccccc1 (stereo not given)
inactive: A549 > 10 µM | ACHN > 10 µM | CCRF-CEM > 10 µM | EKVX > 10 µM | HL-60 > 10 µM | HOP-62 > 10 µM | Hs-578T > 10 µM | M14 > 10 µM | MCF7 > 10 µM | MDA-MB-231 > 10 µM | MDA-N > 10 µM | NCI-H226 > 10 µM | NCI-H460 > 10 µM | NCI-H522 > 10 µM | OVCAR-4 > 10 µM | PC-3 > 10 µM | SK-OV-3 > 10 µM | SNB-19 > 10 µM | UACC-62 > 10 µM

CN1CC=C(C#CC(C)(C)O)CC1
inactive: A549 > 37.5 µM | ACHN > 37.5 µM | CCRF-CEM > 37.5 µM | EKVX > 37.5 µM | HL-60 > 37.5 µM | HOP-62 > 37.5 µM | Hs-578T > 37.5 µM | M14 > 37.5 µM | MCF7 > 37.5 µM | MDA-MB-231 > 37.5 µM | MDA-N > 37.5 µM | NCI-H226 > 37.5 µM | NCI-H460 > 37.5 µM | OVCAR-4 > 37.5 µM | PC-3 > 37.5 µM | SK-OV-3 > 37.5 µM | SNB-19 > 37.5 µM | UACC-62 > 37.5 µM

C=CCCCC1CCCNC1=O (stereo not given)
inactive: A549 > 100 µM | ACHN > 100 µM | EKVX > 100 µM | HOP-62 > 100 µM | HOP-92 > 100 µM | Hs-578T > 100 µM | M14 > 100 µM | MCF7 > 100 µM | MDA-MB-231 > 100 µM | MDA-N 58.5 µM | NCI-H226 > 100 µM | NCI-H460 42.6 µM | NCI-H522 > 100 µM | OVCAR-4 > 100 µM | PC-3 > 100 µM | SK-OV-3 > 100 µM | SNB-19 > 100 µM | UACC-62 > 100 µM

CCN(CC)CCC(=O)c1ccc(Oc2ccccc2)cc1
inactive: A549 > 100 µM | ACHN 15.8 µM | CCRF-CEM 22.1 µM | EKVX 20.8 µM | HOP-62 27.5 µM | HOP-92 15.8 µM | Hs-578T 18.2 µM | M14 38.1 µM | MCF7 17.9 µM | MDA-MB-231 20.7 µM | MDA-N 16.5 µM | NCI-H226 > 100 µM | OVCAR-4 23.9 µM | PC-3 39 µM | SK-OV-3 > 100 µM | SNB-19 18.9 µM | UACC-62 15.9 µM

CC1OC1P(=O)(O)O (stereo not given)
inactive: A549 > 100 µM | ACHN > 100 µM | CCRF-CEM 27.5 µM | EKVX > 100 µM | HOP-62 > 100 µM | HOP-92 > 100 µM | Hs-578T > 100 µM | MCF7 > 100 µM | MDA-MB-231 > 100 µM | MDA-N > 100 µM | NCI-H460 > 100 µM | OVCAR-4 > 100 µM | PC-3 > 100 µM | SK-OV-3 > 100 µM | SNB-19 > 100 µM | UACC-62 > 100 µM
